According to US20230330040A1, “IMMUNOLOGICAL EFFECTS OF METABOLITES” (The Regents of the University of California, priority 2020, published 2023):
“Also recorded” adds a separate entry of the source. One block for each molecule: values may come before it.

What was measured:
[1] = system: C. elegans var. Bristol (N2); assay: C. elegans lifespan analysis; type: in vivo; settings: for lifespan extension versus untreated control worms / lifespan versus spermidine treated worms: lifelong treatment; for lifespan extension versus untreated control worms: 0.2 mM spermidine, 0.5 mM 1-MNA, 0.01 and 0.1 mM PEA, 0.01 mM OEA, b30 prints 100 μM spermidine, 100 μM 1-MNA; for lifespan extension versus Control: lifelong exposure
Procedure: C. elegans var. Bristol (N2), was used as the wild-type strain. Strains were maintained and lifespan assays were performed at 20° C. Twenty-four hours after seeding Escherichia coli (OP50) bacteria on standard NGM plates, the bacteria were killed by 4 min exposure to UV irradiation using a Stratalinker UV crosslinker (Stratagene, Model 2400). The following concentrations of compounds were used: 0.2 mM spermidine, 0.5 mM 1-MNA, 0.01 and 0.1 mM PEA, and 0.01 mM OEA. Spermidine and MNA were diluted into 100 μl sterilized water and applied to the top of the agar medium (3 ml NGM plates). Plates were then gently swirled to allow compounds to spread to the entire NGM surface. Identical solutions of compound-free water were used for the control plates. Plates were then allowed to dry overnight. The procedure was repeated each time worms were transferred to fresh plates (every 2-4 days). PEA and OEA were added to cooled agar, prior to solidification; for the combination, all compounds were added to cooled agar and plates stored at 4° C. Synchronous worm populations were generated by hypochlorite treatment of gravid adults and life span assays were performed beginning at the L4 stage (Day 0). Seven to eight plates of 15 worms each were exposed to the indicated compounds. Animals were transferred to fresh plates every 2 days for the first week and then 3-4 days thereafter. Worms were examined for touch-provoked movement and pharyngeal pumping, until death. Worms that died due to desiccation from crawling on the edge of the plates, were censored. Kaplan-Meier survival curves were created to evaluate C. elegans lifespan. The R package survival (3.1.8) was used to fit the Cox proportional hazards regression model to evaluate differences of survivals between each treatment group versus control.

[2] = system: total cyclooxygenase (COX) activity; assay: COX activity assay in LPS stimulated THP-1 macrophage; type: cell-based, human; settings: spermidine 100 μM, 1-MNA 100 μM, PEA 10 nM, OEA 10 μM, Combo = all four
Procedure: For certain assays requiring high cellular concentrations beyond what was feasible to isolate from human volunteers, THP-1 monocytes (ATCC, TIB-202) were cultured in RPMI 1640, 10% FBS, lx PSG and differentiated into M0 macrophage using 100 nM phorbol 12-myristate-13-acetate (PMA) for 2 days followed by incubation with clean RPMI, 10% FBS, 1×PSG for 1 day.
The effect of treatment with participant plasma and individual metabolites on the total cellular COX activity of THP-1 macrophage was measured using a commercially available kit (Cayman Chemical, 760151). In order to induce COX-2 expression, THP-1 macrophage were incubated with 10 ng/mL of lipopolysaccharide (LPS) (Sigma, LPS25) in RPMI, 1×PSG along with 20% participant plasma, or in RMPI, 10% FBS, 1×PSG either alone as a positive control or with isolated metabolites overnight (approximately 18 hrs) before measuring total COX activity from cell lysates. A negative control of macrophage in RPMI, 10% FBS, 1×PSG without LPS was also performed. (Inter CV: 5.4, Intra CV: 12.3)

SMILES: C[n+]1cccc(C(N)=O)c1 [1-MNA, 1-methylnicotinamide]
lifespan extension versus untreated control worms [1]: Significant lifespan extension was observed for all metabolites except 1-MNA

SMILES: CCCCCCCC/C=C\CCCCCCCC(=O)NCCO [OEA, oleoylethanolamide]
lifespan versus spermidine treated worms [1]: significantly increased lifespan | lifespan extension versus untreated control worms [1]: significantly increased lifespan extension; also recorded: Significant lifespan extension

total COX activity versus vehicle treated positive control [2]: potent inhibitor of COX activity
SMILES: CCCCCCCCCCCCCCCC(=O)NCCO [PEA, palmitoylethanolamide]
lifespan extension versus Control ([1]; PEA 10 μM (lower concentration)): most effective at increasing lifespan; also recorded: Significant lifespan extension | lifespan extension versus Control ([1]; PEA 100 μM): Significant lifespan extension | lifespan versus spermidine treated worms [1]: significantly increased lifespan | lifespan extension versus untreated control worms [1]: significantly increased lifespan extension

SMILES: NCCCCNCCCN [spermidine]
lifespan extension versus untreated control worms [1]: significantly increased lifespan extension; also recorded: Significant lifespan extension
